Measured values taken from US20240150360A1 (THE REGENTS OF THE UNIVERSITY OF MICHIGAN, priority 2021, published 2024).
Where two headings read alike, the source gives them in different places.

Key:
[1] = target: T1, CBP (Homo sapiens, UniProt Q92793); assay: CBP degradation in 22Rv1 cells (5 h); format: cell-based; conditions: 22Rv1 cells, 5 h; for Dmax: 22Rv1, 5 h, read-out: CBP Degradation (22Rv1, 5 h) DCmax
T1 construct: endogenous in cells; host or cells: 22Rv1 (ATCC CRL-2505) human prostate cancer cells
From the text: (§1) Biological Assays. […] Cells with 3-8 passages after purchase were used in experiments.

[2] = test system: 22Rv1 cells; assay: Cell growth inhibition assay (CellTiter-Glo) in 22Rv1; format: cell-based, human; conditions: Homo sapiens, 22Rv1, 96 h, read-out: Cell Growth Inhibition (IC50) 22Rv1
Protocol: Biological Assays. CBP/p300 degradation activity and cell growth inhibition were evaluated in the human prostate cancer cell line 22Rv1 (ATCC© CRL-2505™) purchased from the American Type Culture Collection (ATCC), Manassas, VA, and maintained and cultured in Dulbecco's Modified Eagle's medium (DMEM) containing 10% fetal bovine serum, 1 unit/ml of penicillin and 1 μg/ml of streptomycin. Cells with 3-8 passages after purchase were used in experiments.
Cell Growth Inhibition Assay Protocol. 22RV1 cells were seeded at a concentration of 4000 cells/well in 100 μl culture medium and 2 μl of test compound (final concentration start from 10 μM and 3 times dilution) into 96 well microplates (Corning 3903). The cell cultures were incubated for 96 h at +37° C. and 5% CO2. The plate and its contents were equilibrated to room temperature for approximately 30 minutes. 100 μl of CellTiter-Glo® 2.0 Reagent equal to the volume of cell culture medium present was added in each well. The contents were mixed for 2 minutes on an orbital shaker. The plate was allowed to incubate at room temperature for 10 minutes. The luminescence was recorded. The data was analyzed by Prism GraphPad 8.

[3] = test system: HL60; assay: Cell growth inhibition in HL60; format: cell-based; conditions: Homo sapiens
[4] = target: T2, P300 (Homo sapiens, UniProt Q09472); assay: P300 degradation in 22Rv1 cells (5 h); format: cell-based; conditions: 22Rv1 cells, 5 h; for Dmax: read-out: P300 Degradation (22Rv1, 5 h) DCmax
T2 construct: endogenous in cells; host or cells: 22Rv1 (ATCC CRL-2505) human prostate cancer cells
From the text: as §1

[5] = HL-60, read-out: Cell Growth Inhibition (IC50) HL60

T2 sequence (Q09472 whole entry): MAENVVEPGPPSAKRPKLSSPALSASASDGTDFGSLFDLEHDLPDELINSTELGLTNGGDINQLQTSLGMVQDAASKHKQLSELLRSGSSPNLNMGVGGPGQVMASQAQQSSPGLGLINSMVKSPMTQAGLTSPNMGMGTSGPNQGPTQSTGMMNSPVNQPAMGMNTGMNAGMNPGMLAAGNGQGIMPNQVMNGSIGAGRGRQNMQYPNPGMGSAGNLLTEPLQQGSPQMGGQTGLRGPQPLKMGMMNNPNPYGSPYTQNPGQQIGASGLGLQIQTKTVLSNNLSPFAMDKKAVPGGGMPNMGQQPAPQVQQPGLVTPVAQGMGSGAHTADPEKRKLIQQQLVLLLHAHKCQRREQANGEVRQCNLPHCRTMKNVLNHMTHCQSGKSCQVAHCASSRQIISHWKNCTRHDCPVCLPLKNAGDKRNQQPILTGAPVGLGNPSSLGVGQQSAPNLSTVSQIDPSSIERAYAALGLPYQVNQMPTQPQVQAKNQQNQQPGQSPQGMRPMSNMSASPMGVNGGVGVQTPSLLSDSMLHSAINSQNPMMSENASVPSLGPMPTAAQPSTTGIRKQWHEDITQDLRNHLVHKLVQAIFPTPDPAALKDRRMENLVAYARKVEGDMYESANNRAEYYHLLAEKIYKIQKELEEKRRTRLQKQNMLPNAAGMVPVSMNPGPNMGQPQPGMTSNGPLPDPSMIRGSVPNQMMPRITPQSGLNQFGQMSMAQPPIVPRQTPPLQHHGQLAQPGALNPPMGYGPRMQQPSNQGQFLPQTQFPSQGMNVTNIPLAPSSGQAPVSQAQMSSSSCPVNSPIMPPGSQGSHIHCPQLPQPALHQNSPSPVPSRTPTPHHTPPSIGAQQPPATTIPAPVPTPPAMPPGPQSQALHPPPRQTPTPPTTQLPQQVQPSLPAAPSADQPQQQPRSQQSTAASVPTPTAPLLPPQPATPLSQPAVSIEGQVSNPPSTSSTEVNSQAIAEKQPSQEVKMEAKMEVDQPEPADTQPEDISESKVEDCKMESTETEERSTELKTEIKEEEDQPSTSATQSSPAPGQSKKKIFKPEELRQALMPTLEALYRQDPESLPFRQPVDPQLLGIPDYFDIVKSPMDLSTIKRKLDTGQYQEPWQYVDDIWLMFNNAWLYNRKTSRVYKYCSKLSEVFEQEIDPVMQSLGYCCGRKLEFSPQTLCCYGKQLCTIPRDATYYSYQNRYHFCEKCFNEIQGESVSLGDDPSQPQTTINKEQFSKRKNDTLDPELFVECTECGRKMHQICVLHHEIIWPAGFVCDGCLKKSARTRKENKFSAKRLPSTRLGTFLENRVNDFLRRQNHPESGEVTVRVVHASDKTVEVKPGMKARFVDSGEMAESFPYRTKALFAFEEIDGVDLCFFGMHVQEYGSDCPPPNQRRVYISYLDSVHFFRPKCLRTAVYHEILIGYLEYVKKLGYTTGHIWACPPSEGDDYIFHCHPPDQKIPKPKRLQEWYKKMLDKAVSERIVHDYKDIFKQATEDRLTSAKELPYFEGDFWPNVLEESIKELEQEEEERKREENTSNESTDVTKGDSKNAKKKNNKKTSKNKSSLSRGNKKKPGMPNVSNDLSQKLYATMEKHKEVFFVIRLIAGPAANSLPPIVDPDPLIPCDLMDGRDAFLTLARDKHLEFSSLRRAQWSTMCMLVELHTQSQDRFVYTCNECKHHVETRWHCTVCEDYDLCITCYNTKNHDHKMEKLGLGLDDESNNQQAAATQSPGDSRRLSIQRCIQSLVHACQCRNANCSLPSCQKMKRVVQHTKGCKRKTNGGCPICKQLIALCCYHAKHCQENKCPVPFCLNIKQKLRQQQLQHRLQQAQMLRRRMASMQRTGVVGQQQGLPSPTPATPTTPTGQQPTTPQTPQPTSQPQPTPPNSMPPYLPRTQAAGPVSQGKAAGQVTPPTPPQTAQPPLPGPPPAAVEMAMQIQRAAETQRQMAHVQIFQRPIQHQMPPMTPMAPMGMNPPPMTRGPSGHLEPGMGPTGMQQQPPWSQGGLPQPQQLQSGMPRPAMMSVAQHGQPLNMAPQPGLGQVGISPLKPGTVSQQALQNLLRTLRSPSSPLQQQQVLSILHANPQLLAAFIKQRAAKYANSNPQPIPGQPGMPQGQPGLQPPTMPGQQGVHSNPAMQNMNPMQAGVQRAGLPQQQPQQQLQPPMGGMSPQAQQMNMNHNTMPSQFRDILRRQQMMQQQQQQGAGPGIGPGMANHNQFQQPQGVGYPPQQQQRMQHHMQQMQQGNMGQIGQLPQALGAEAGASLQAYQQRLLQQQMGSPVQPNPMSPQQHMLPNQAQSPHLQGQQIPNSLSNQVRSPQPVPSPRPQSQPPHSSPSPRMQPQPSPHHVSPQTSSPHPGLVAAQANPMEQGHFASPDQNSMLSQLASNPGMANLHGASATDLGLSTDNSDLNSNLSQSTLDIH
T1 sequence (Q92793 whole entry): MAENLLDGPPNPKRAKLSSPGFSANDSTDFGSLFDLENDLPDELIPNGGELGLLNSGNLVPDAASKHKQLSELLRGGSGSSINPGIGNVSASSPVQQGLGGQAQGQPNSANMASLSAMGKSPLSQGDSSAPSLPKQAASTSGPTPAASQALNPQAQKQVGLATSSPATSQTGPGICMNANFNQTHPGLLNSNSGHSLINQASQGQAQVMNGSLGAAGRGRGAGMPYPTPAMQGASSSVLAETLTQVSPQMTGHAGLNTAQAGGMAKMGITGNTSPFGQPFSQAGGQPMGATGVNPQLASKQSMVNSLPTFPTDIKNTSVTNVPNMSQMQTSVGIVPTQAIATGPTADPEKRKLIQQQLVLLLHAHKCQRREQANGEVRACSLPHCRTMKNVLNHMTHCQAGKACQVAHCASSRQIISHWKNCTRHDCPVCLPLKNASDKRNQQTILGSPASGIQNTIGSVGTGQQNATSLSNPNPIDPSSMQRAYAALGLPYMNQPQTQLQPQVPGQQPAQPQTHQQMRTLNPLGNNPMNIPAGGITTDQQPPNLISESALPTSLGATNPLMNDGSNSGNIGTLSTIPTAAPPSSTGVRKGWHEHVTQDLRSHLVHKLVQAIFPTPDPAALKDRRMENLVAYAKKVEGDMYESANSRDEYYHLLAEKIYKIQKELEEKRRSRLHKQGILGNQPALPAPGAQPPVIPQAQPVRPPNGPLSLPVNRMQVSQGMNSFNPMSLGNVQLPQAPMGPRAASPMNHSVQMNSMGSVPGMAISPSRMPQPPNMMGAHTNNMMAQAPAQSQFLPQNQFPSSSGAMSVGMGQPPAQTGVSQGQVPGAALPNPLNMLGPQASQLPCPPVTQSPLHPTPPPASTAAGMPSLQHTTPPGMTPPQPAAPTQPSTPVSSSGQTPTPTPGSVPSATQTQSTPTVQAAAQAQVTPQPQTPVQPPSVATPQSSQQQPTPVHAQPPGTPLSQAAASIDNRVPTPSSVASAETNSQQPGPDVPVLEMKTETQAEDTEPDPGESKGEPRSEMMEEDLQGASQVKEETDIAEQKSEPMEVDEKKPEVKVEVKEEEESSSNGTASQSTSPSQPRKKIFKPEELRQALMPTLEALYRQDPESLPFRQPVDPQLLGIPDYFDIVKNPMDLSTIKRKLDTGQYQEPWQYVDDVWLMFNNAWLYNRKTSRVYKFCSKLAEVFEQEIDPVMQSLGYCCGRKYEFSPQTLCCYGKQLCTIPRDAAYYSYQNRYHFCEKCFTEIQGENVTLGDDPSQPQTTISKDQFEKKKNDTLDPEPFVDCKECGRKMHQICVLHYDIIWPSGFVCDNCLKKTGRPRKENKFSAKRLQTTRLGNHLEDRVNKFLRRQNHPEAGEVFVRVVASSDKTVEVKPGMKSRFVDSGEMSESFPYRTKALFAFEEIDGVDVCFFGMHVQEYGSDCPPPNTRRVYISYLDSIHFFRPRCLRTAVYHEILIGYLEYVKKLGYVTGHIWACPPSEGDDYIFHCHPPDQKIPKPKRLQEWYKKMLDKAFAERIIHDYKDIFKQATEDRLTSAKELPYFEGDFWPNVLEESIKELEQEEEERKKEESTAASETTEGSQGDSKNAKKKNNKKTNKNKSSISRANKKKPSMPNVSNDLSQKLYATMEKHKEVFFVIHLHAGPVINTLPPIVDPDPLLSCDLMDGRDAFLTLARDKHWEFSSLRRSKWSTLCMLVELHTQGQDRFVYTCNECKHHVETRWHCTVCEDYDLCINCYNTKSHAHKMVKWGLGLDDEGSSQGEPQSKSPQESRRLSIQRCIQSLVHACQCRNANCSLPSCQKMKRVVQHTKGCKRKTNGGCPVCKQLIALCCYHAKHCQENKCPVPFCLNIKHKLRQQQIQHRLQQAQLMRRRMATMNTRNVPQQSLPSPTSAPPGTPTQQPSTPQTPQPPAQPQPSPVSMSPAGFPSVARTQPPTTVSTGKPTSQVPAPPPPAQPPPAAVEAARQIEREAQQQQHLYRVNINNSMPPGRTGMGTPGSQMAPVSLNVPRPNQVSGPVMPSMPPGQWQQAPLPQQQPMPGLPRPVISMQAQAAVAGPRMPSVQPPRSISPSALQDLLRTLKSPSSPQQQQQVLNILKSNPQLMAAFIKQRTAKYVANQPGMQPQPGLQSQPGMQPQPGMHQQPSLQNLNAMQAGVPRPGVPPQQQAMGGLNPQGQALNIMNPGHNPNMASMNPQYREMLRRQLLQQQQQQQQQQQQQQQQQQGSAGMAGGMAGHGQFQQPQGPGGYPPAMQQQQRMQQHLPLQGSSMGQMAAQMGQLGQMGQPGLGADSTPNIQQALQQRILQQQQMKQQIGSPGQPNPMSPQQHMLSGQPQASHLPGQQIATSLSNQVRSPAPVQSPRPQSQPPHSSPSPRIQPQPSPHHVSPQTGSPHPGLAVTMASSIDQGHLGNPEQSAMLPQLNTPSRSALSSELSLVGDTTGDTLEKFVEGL

Row | SMILES | Dmax [1] [%] | DC50 [1] [nM] | IC50 [2] [nM] | IC50 [3, 5] [nM] | DC50 [4] [nM] | Dmax [4] [%] | also measured
1 | CC(=O)N1CCc2c(c(N3CCCc4cc(-c5cnn(C)c5)c(C(F)F)cc43)nn2C2CCN(C(=O)CCCN3Cc4cc5c(cc4C3)C(=O)N(C3CCC(=O)NC3=O)C5=O)CC2)C1 (stereo not drawn) [CP-008, 6-(4-(4-(5-acetyl-3-(7-(difluoromethyl)-6-(1-methyl-1H-pyrazol-4-yl)-3,4-dihydroquinolin-1(2H)-yl)-4,5,6,7-tetrahydro-1H-pyrazolo[4,3-c]pyridin-1-yl)piperidin-1-yl)-4-oxobutyl)-2-(2,6-dioxopiperidin-3-yl)-6,7-dihydropyrrolo[3,4-f]isoindole-1,3(2H,5H)-dione] | > 70 | < 10 | – | – | – | – | IC50 ([2]; 22Rv1 cells, 96 h incubation): < 100 nM; IC50 ([3]; HL-60, HL60 cells, read-out: Cell Growth Inhibition (IC50) HL60): < 100 nM
2 | CC(=O)N1CCc2c(c(N3CCCc4cc(-c5cnn(C)c5)c(C(F)F)cc43)nn2[C@H]2CC[C@@H](CN3Cc4cc5c(cc4C3)C(=O)N(C3CCC(=O)NC3=O)C5=O)CC2)C1 (relative stereo) [CP-046, 6-((4-(5-acetyl-3-(7-(difluoromethyl)-6-(1-methyl-1H-pyrazol-4-yl)-3,4-dihydroquinolin-1(2H)-yl)-4,5,6,7-tetrahydro-1H-pyrazolo[4,3-c]pyridin-1-yl)cyclohexyl)methyl)-2-(2,6-dioxopiperidin-3-yl)-6,7-dihydropyrrolo[3,4-f]isoindole-1,3(2H,5H)-dione] | – | – | < 100 | < 100 | – | – | –
3 | CC(=O)N1CCc2c(c(N3CCCc4cc(-c5cnn(C)c5)c(C(F)F)cc43)nn2C2CCC(N3CCc4ccc5c(c4C3)C(=O)N(C3CCC(=O)NC3=O)C5=O)CC2)C1 (stereo not drawn) [CP-087, 8-((1r,4r)-4-(5-acetyl-3-(7-(difluoromethyl)-6-(1-methyl-1H-pyrazol-4-yl)-3,4-dihydroquinolin-1(2H)-yl)-4,5,6,7-tetrahydro-1H-pyrazolo[4,3-c]pyridin-1-yl)cyclohexyl)-2-(2,6-dioxopiperidin-3-yl)-6,7,8,9-tetrahydro-1H-pyrrolo[3,4-h]isoquinoline-1,3(2H)-dione] | < 50 | > 1000 | – | – | > 1000 | < 50 | –
4 | CC(=O)N1CCc2c(c(N3CCCc4cc(-c5cnn(C)c5)c(C(F)F)cc43)nn2C2CCN(C(=O)CN3Cc4cc5c(cc4C3)C(=O)N(C3CCC(=O)NC3=O)C5=O)CC2)C1 (stereo not drawn) [CP-005, 6-(2-(4-(5-acetyl-3-(7-(difluoromethyl)-6-(1-methyl-1H-pyrazol-4-yl)-3,4-dihydroquinolin-1(2H)-yl)-4,5,6,7-tetrahydro-1H-pyrazolo[4,3-c]pyridin-1-yl)piperidin-1-yl)-2-oxoethyl)-2-(2,6-dioxopiperidin-3-yl)-6,7-dihydropyrrolo[3,4-f]isoindole-1,3(2H,5H)-dione] | – | – | < 100 | < 100 | – | – | –
5 | CC(=O)N1CCc2c(c(N3CCCc4cc(-c5cnn(C)c5)c(C(F)F)cc43)nn2C[C@H]2CC[C@H](CN3Cc4cc5c(cc4C3)C(=O)N(C3CCC(=O)NC3=O)C5=O)CC2)C1 (stereo partly drawn) [CP-043, 6-((4-((5-acetyl-3-(7-(difluoromethyl)-6-(1-methyl-1H-pyrazol-4-yl)-3,4-dihydroquinolin-1(2H)-yl)-4,5,6,7-tetrahydro-1H-pyrazolo[4,3-c]pyridin-1-yl)methyl)cyclohexyl)methyl)-2-(2,6-dioxopiperidin-3-yl)-6,7-dihydropyrrolo[3,4-f]isoindole-1,3(2H,5H)-dione] | – | – | < 10000 | < 1000 | – | – | –
6 | CC(=O)N1CCc2c(c(N3CCCc4cc(-c5cnn(C)c5)c(C(F)F)cc43)nn2[C@H]2CC[C@H](CN3CCc4ccc5c(c4C3)C(=O)N(C3CCC(=O)NC3=O)C5=O)CC2)C1 (stereo partly drawn) [CP-089, 8-(((1r,4r)-4-(5-acetyl-3-(7-(difluoromethyl)-6-(1-methyl-1H-pyrazol-4-yl)-3,4-dihydroquinolin-1(2H)-yl)-4,5,6,7-tetrahydro-1H-pyrazolo[4,3-c]pyridin-1-yl)cyclohexyl)methyl)-2-(2,6-dioxopiperidin-3-yl)-6,7,8,9-tetrahydro-1H-pyrrolo[3,4-h]isoquinoline-1,3(2H)-dione] | < 50 | > 1000 | – | – | > 1000 | < 50 | –
7 | CC(=O)N1CCc2c(c(N3CCCc4cc(-c5cnn(C)c5)c(C(F)F)cc43)nn2C2CCC(N3Cc4cc5c(cc4C3)C(=O)N(C3CCC(=O)NC3=O)C5=O)CC2)C1 (stereo not drawn) [CP-037, 6-(4-(5-acetyl-3-(7-(difluoromethyl)-6-(1-methyl-1H-pyrazol-4-yl)-3,4-dihydroquinolin-1(2H)-yl)-4,5,6,7-tetrahydro-1H-pyrazolo[4,3-c]pyridin-1-yl)cyclohexyl)-2-(2,6-dioxopiperidin-3-yl)-6,7-dihydropyrrolo[3,4-f]isoindole-1,3(2H,5H)-dione] | – | – | < 100 | < 100 | – | – | –
8 | CC(=O)N1CCc2c(c(N3CCCc4cc(-c5cnn(C)c5)c(C(F)F)cc43)nn2C2CCC(N3CC4(Cc5cc6c(cc5C4)C(=O)N(C4CCC(=O)NC4=O)C6=O)C3)CC2)C1 (stereo not drawn) [CP-086, 1-(4-(5-acetyl-3-(7-(difluoromethyl)-6-(1-methyl-1H-pyrazol-4-yl)-3,4-dihydroquinolin-1(2H)-yl)-4,5,6,7-tetrahydro-1H-pyrazolo[4,3-c]pyridin-1-yl)cyclohexyl)-2′-(2,6-dioxopiperidin-3-yl)-5′,7′-dihydro-1′H-spiro[azetidine-3,6′-cyclopenta[f]isoindole]-1′,3′(2′H)-dione] | > 70 | < 10 | – | – | < 10 | > 70 | –
9 | CC(=O)N1CCc2c(c(N3CCCc4cc(-c5cnn(C)c5)c(C(F)F)cc43)nn2[C@H]2CC[C@H](CN3CC4(Cc5cc6c(cc5C4)C(=O)N(C4CCC(=O)NC4=O)C6=O)C3)CC2)C1 (stereo partly drawn) [CP-088, 1-(((1r,4r)-4-(5-acetyl-3-(7-(difluoromethyl)-6-(1-methyl-1H-pyrazol-4-yl)-3,4-dihydroquinolin-1(2H)-yl)-4,5,6,7-tetrahydro-1H-pyrazolo[4,3-c]pyridin-1-yl)cyclohexyl)methyl)-2′-(2,6-dioxopiperidin-3-yl)-5′,7′-dihydro-1′H-spiro[azetidine-3,6′-cyclopenta[f]isoindole]-1′,3′(2′H)-dione] | > 70 | < 10 | – | – | < 10 | > 70 | –
10 | CC(=O)N1CCc2c(c(N3CCCc4cc(-c5cnn(C)c5)c(C(F)F)cc43)nn2C[C@H]2CC[C@@H](N3Cc4cc5c(cc4C3)C(=O)N(C3CCC(=O)NC3=O)C5=O)CC2)C1 (stereo partly drawn) [CP-040, 6-(4-((5-acetyl-3-(7-(difluoromethyl)-6-(1-methyl-1H-pyrazol-4-yl)-3,4-dihydroquinolin-1(2H)-yl)-4,5,6,7-tetrahydro-1H-pyrazolo[4,3-c]pyridin-1-yl)methyl)cyclohexyl)-2-(2,6-dioxopiperidin-3-yl)-6,7-dihydropyrrolo[3,4-f]isoindole-1,3(2H,5H)-dione] | – | – | < 1000 | < 100 | – | – | –
11 | CC(=O)N1CCc2c(c(N3CCCc4cc(-c5cnn(C)c5)c(C(F)F)cc43)nn2C2CCC(CCN3Cc4cc5c(cc4C3)C(=O)N(C3CCC(=O)NC3=O)C5=O)CC2)C1 (stereo not drawn) [CP-044, 6-(2-(4-(5-acetyl-3-(7-(difluoromethyl)-6-(1-methyl-1H-pyrazol-4-yl)-3,4-dihydroquinolin-1(2H)-yl)-4,5,6,7-tetrahydro-1H-pyrazolo[4,3-c]pyridin-1-yl)cyclohexyl)ethyl)-2-(2,6-dioxopiperidin-3-yl)-6,7-dihydropyrrolo[3,4-f]isoindole-1,3(2H,5H)-dione] | – | – | < 100 | < 100 | – | – | –
12 | CC(=O)N1CCc2c(c(N3CCCc4cc(-c5cnn(C)c5)c(C(F)F)cc43)nn2C[C@H]2CC[C@H](N3Cc4cc5c(cc4C3)C(=O)N(C3CCC(=O)NC3=O)C5=O)CC2)C1 (relative stereo) [CP-039, 6-(-4-((5-acetyl-3-(7-(difluoromethyl)-6-(1-methyl-1H-pyrazol-4-yl)-3,4-dihydroquinolin-1(2H)-yl)-4,5,6,7-tetrahydro-1H-pyrazolo[4,3-c]pyridin-1-yl)methyl)cyclohexyl)-2-(2,6-dioxopiperidin-3-yl)-6,7-dihydropyrrolo[3,4-f]isoindole-1,3(2H,5H)-dione] | – | – | < 1000 | < 100 | – | – | –
13 | CC(=O)N1CCc2c(c(N3CCCc4cc(-c5cnn(C)c5)c(C(F)F)cc43)nn2[C@H]2CC[C@H](CN3Cc4cc5c(cc4C3)C(=O)N(C3CCC(=O)NC3=O)C5=O)CC2)C1 (stereo partly drawn) [CP-047, 6-((4-(5-acetyl-3-(7-(difluoromethyl)-6-(1-methyl-1H-pyrazol-4-yl)-3,4-dihydroquinolin-1(2H)-yl)-4,5,6,7-tetrahydro-1H-pyrazolo[4,3-c]pyridin-1-yl)cyclohexyl)methyl)-2-(2,6-dioxopiperidin-3-yl)-6,7-dihydropyrrolo[3,4-f]isoindole-1,3(2H,5H)-dione] | – | – | < 100 | < 100 | – | – | –
